Measured values taken from US20080299177A1, “Supramolecular Complexes for Use in Acoustically Mediated Intracellular Drug Delivery in vivo” (Biovaluation & Analysis, Inc., priority 2007, published 2008).

Columns and labels:
Mammalian Cells = assay: Ultrasound-mediated intracellular calcein delivery and cell viability (flow cytometry); type: cell-based; conditions: calcein released from supramolecular complexes, with contrast agent
Excerpt: (§1) Ultrasound. Ultrasonic energy is produced using an immersible, focused, piezoceramic transducer. In this experimental system, two different matching resistance networks are necessary, allowing production of sound at 1.0 MHz and 3.0 MHz, similar to a method known in the art (Guzmán et al., 2001a, 2001b, 2002, and 2003; and Schlicher et al., 2006). A sinusoidal waveform is produced by, for example, programmable waveform generators (Stanford Research Instruments, Sunnyvale, Calif.) used in conjunction to control pulse length, frequency, and peak-to-peak voltage. The sinusoidal waveform is amplified by an RF broadband power amplifier (Electronic Navigation Industries, Rochester, N.Y.) before passing through a matching network and controlling the response of the transducer. The transducer is housed in a polycarbonate tank (FIG. 12 [601]) 34.5×32×40 cm; containing approximately 34 liters of deionized, distilled, and partially degassed water at room temperature (i.e., 22° C. to 23° C.). A thick acoustic absorber is mounted opposite the transducer to minimize standing-wave formation (not illustrated). A three-axis micropositioning system (10 μm resolution; Velmex, Bloomfield, N.Y.) is mounted on top of the tank to position samples and a hydrophone at desired locations in the tank. A PVDF membrane hydrophone (NTR Systems, Seattle, Wash.) is used to measure spatial-peak-temporal-peak negative pressure and to map and calibrate the acoustic field produced by the transducer versus the peak-to-peak voltage signal provided by a function generator.
Preparation of Nanocarriers (Supramolecular Complexes) and Samples. Before Ultrasound exposure, supramolecular complexes are prepared encapsulating calcein (i.e., 15 μM initial solution) by using a procedure of Examples 1 and 2. Samples are prepared at a cell concentration of 10^6 cells/ml, supramolecular complexes containing calcein, and the ultrasound contrast agent Optison® at concentrations of 0.30% v/v (˜1.6×10^6 bubble/ml), 1.8% v/v (˜1.1×10^7 bubble/ml), and 15.0% v/v (˜9.3×10^7 bubble/ml). Optison® is an ultrasound contrast agent, a suspension of perfluorcarbon gas bubbles stabilized with denatured human albumin that is used to serve primarily as nuclei to promote acoustic cavitation activity in sonicated samples. The product name “Optison®” may hereafter be referred to as “contrast agent” or “ultrasound contrast agent.”
Before every experiment, the desired placement of the supramolecular complex and cell samples in the acoustic field is found using the PVDF membrane hydrophone (FIG. 12 [604]). This location is approximately 1 cm and 0.5 cm out of the ultrasound's focus toward the transducer (601) (for 1.1 MHz and 3.1 MHz, respectively). The acoustic pressure is calibrated versus the peak-to-peak voltage of the signal created by the function generator, using the PVDF membrane hydrophone (604) at the desired location. These out-of-focus locations have a broader acoustic beam than at the focus, approximately 10.4-mm and 2.4-mm wide at half-amplitude (i.e., −6 dB) for 1.1 MHz and 3.1 MHz, respectively. […]
Samples are placed within chambers (605) constructed from a cylindrical bulb of polyethylene with an approximate dimension of 1.4 cm in height and 0.6 cm in diameter. […] A metal rod (606) is immediately inserted into the open end of the sample chamber and then attached to the three-axis positioning system (603), placing the sample in the desired location as determined by the hydrophone (604). […]

[1] = test system: Henrietta Lacks (HeLa) cells; assay: Ultrasound-mediated intracellular calcein delivery and cell viability in HeLa cells (flow cytometry); type: cell-based; conditions: HeLa cells compared with AoSMC cells; 1.1 MHz and 3.1 MHz; FIGS. 14A-14D
Excerpt: as §1, with “A PVDF membrane hydrophone (NTR Systems, Seattle, Wash.) is used to measure spatial-peak-temporal-peak negative pressure and to map and calibrate the acoustic field produced by the transducer versus the peak-to-peak voltage signal provided by a function generator.” left out

O=C(O)CN(CC(=O)O)Cc1cc2c(cc1O)Oc1cc(O)c(CN(CC(=O)O)CC(=O)O)cc1C21OC(=O)c2ccccc21 [calcein]
calcein uptake (Mammalian Cells; mild ultrasound conditions): low levels | cell death (Mammalian Cells; mild ultrasound conditions): almost no cell death | calcein uptake (fraction of cells) (Mammalian Cells; moderate ultrasound conditions): one-third | cell death (Mammalian Cells; moderate ultrasound conditions): some cell death | cell death (Mammalian Cells; strong ultrasound conditions): kill almost all insonated cells | cell death [1]: lower levels of death | uptake [1]: greater uptake
